Laboratory results as given in patent publication US20030073654A1, “Stabilized transient gene expression” (Genespan Corporation, priority 1996, published 2003).
Several values for one entry are separate records, joined by “and”; a condition that tells them apart may be missing. Equal entries are not always repeated. Entries after “also recorded” stand apart in the source; their conditions may differ. Where two headings read alike, the source gives them in different places. Marks after values point to notes of the source that are not given here.

Legend:
[1] = test system: SW480 P3 (ATCC #CCL228) human colon carcinoma cells; experiment: Screening assay for enhancement of transient expression (β-galactosidase gene, liposomal transfection, 6-well plates); assay type: cell-based; conditions: for G Factor (G14): Table 1, values without asterisk, days 4-14 after transfection; for X Factor / K Factor: Table 1; for X Factor: cumulative β-galactosidase vs control, first four days after transfection, compound at the mM given in the table; for K Factor: ratio of first order rate constants of change in expression, control vs compound; for effect on transient expression when present before or during the transfection step: polyanionic carbohydrates, liposomal transfection
Source text: These parameters are called the “X” factor, the “G” factor, and the “K” factor. [formula]
This factor reflects the extent to which a chemical compound added to a transfected cell enhances stabilizes transient expression for the first four days following transfection. […] For example, if expression is doubled in the presence of a compound, […]. […] X may be calculated similarly when the agent in question is a mixture of more than one chemical compound.
Cumulative protein expression, i.e., the values for “A” and “C”, is measured by summing the values measured daily in aliquots of the cultured cells.
2. G factors. G factors differ from the X factor only with respect to the time period evaluated. For calculating a G factor, the amount of protein expressed is measured from days 4-7 or days 4-14, where day 0 is the day on which the foreign DNA is added to the cells. The subscripts denote which of the two time periods provided the basis for measurement. […] As for the X factor, [formula]
3. K factor. The K factor is the ratio of the rate constants for the change in the foreign DNA expression in control transfected cells and in cells exposed to a chemical compound of the subject invention. K is determined according to the following equation: [formula]
wherein “k(DNA)” is the first order rate constant for the change in concentration of the protein expressed from the transgenic DNA, which is expressing protein as a function of time, i.e., [formula]
Values for k(DNA) are derived by using a computer program that plots the log of the foreign protein concentration against time, using the results of transgenic protein measurements that begin about 24 hours after the foreign DNA has been added to the cell. […] However, the program calculates a “best fit” line for each data set, and determines the slope of that portion of the resulting line that corresponds to the period during which protein production is changing. […] Thus, the slope is calculated during this period of decline to provide values for k(DNA) and K that can be compared for the purpose of comparing the efficacy of different chemical compounds.
SW480 P3 (ATCC #CCL228) human colon carcinoma cells (typically, 1×10^6 cells) were plated in the wells of a 6-well tissue culture plate. The number of wells plated reflected the number of days post-transfection during which the experiment would proceed. Each well contained 1 ml of complete media from a 30 ml stock solution containing: 26.4 ml RPMI tissue culture medium, 4 mM L-glutamine, 3.0 ml fetal bovine serum, and 10 μg/ml gentamicin. Cells were cultured at 37° C. in a CO2 incubator with 10% CO2 for 24 hours after being plated, during which time the cells adhered to the plates.
After the 24 hour pre-incubation step, the transfection step was carried out by removing the RPMI and adding 900 μL OPTI-MEM® (Gibco) medium containing 2 μg of VR1412 DNA (Vical, Inc., San Diego, Calif.), which expresses the bacterial β-galactosidase gene under the control of a cytomegalovirus promoter, and 8 μg of a mixture of cationic lipid (1,2-dimyristyloxyproply-3-dimethyl-hydroxyethyl ammonium bromide (e.g., “DMRIE/DOPE”) mixed in equimolar proportions with dioleoylphosphatidylethanolamine) to yield a lipid:DNA molar ratio of 0.99:1. It should be noted that typical transient transfection protocols employ 10 μg DNA per 10^6 cells, but the protocol described here uses less DNA in order to reduce toxicity to the cells. The plates were then incubated for 4 hours at 37° C.
After the 4 hour incubation step, 100 μl of heat deactivated fetal bovine serum (to stop transfection), plus 12.0 μl of 50 mg/ml gentamicin were added to each well.

[2] = pH of aqueous solutions of the compounds; assay type: physicochemical; conditions: stock solutions prepared in culture media diluted with deionized water
Description: The pH values shown in Table 1 were determined in aqueous solutions made by diluting stock solutions prepared in culture media with deionized water.

[3] = Table 1, days 4-7 after transfection
[4] = Table 1, values marked with asterisk, days 4-7 after transfection

Row | Molecule | G Factor (G14) [1] | X Factor [1] | pH (H20) [2] | other results
1 | CCCCCCCCc1ccc(C(=O)O)cc1 [4-OCTYL BENZOIC ACID] | −665 | −2314 | 7.45 | –
2 | CCOC(=O)c1ccc(C(C)=O)cc1 [ETHYL 4-ACETYLBENZOATE] | 42 | 49 | 7.59 | K Factor [1]: 1
3 | C/C1=C2/[N-][C@H]([C@H](CC(N)=O)[C@@]2(C)CCC(=O)NC[C@@H](C)OP(=O)([O-])O[C@H]2[C@@H](O)[C@@H](n3cnc4cc(C)c(C)cc43)O[C@@H]2CO)[C@]2(C)N=C(/C(C)=C3N=C(/C=C4N=C1[C@@H](CCC(N)=O)C\4(C)C)[C@@H](CCC(N)=O)[C@]\3(C)CC(N)=O)[C@@H](CCC(N)=O)[C@]2(C)CC(N)=O.[CH2-][C@H]1O[C@@H](n2cnc3c(N)ncnc32)[C@H](O)[C@@H]1O.[Co] [COENZYME B12] | 51 | −17 | – | –
4 | NCCC(=O)O [β-ALANINE] | 33 | 0.2 | 8.38 | K Factor [1]: 1
5 | NC(=O)NC(CC(=O)O)C(=O)O (racemic) [N-CARBAMYL-DL-ASPARTIC ACID] | 115 | 26 | 4.19 | –
6 | N=C(N)NCCC[C@H](N)C(=O)O [L-ARGININE] | 57 | – | 8.66 | G Factor (G7) [1, 3]: 11
7 | N[C@@H](CC(=O)O)C(=O)O [ASPARTIC ACID] | −45 | – | 5.75 | G Factor (G7) [1, 4]: −17
8 | O=C(O)c1cccnc1 [NICOTINIC ACID] | 87 | 12 | 6.91 | K Factor [1]: 1
9 | heparan sulfate | – | – | – | effect on transient expression when present before or during the transfection step [1]: blocking effect
10 | N[C@@H](CCO)C(=O)O [HOMOSERINE] | 39 | 77 | 7.4 | –
11 | carboxymethylcellulose | – | – | – | effect on transient expression when present before or during the transfection step [1]: blocking effect
12 | NC(=O)CC[C@H](N)C(=O)O [L-GLUTAMINE] | 23 | −13 | 7.14 | –
13 | N[C@@H](CS)C(=O)O [CYSTEINE] | −50 | −35 | 7.24 | –
14 | CCc1ccc(C(=O)O)cc1 [4-ETHYLBENZOIC ACID] | – | – | 6 | K Factor [1]: 1 and 2
15 | t-butyl benzoic acid | – | – | – | effect on transient expression [1]: capable of prolonging transient expression
16 | Nc1cccc(S(=O)(=O)O)c1 [3-AMINO BENZENE SULFONIC ACID] | 32 | −19 | 3.8 | –
17 | N[C@@H](Cc1cc(I)c(O)c(I)c1)C(=O)O [DIIODOTYROSINE] | – | −48 | 7.23 | G Factor (G7) [1, 3]: −8*
18 | NC(=O)NCCC[C@H](N)C(=O)O [CITRULLINE] | 46 | 39 | 7.71 | K Factor [1]: 1
19 | N[C@@H](Cc1c[nH]cn1)C(=O)O [HISTIDINE] | 6 | – | 6.75 | G Factor (G7) [1, 4]: 54; K Factor [1]: 1, 1
20 | ethyoxy benzoic acid | – | – | – | effect on transient expression [1]: capable of prolonging transient expression
21 | C/C1=C2/[N-][C@H]([C@H](CC(N)=O)[C@@]2(C)CCC(=O)NC[C@H](C)OP(=O)([O-])O[C@H]2[C@@H](O)[C@@H](n3cnc4cc(C)c(C)cc43)O[C@@H]2CO)[C@]2(C)N=C(/C(C)=C3N=C(/C=C4N=C1[C@@H](CCC(N)=O)C\4(C)C)[C@@H](CCC(N)=O)[C@]\3(C)CC(N)=O)[C@@H](CCC(N)=O)[C@]2(C)CC(N)=O.[CH3-].[Co+3] [METHYLCOBALAMIN] | 25 | 1 | – | –
22 | isobutyl benzoic acid | – | – | – | effect on transient expression [1]: capable of prolonging transient expression
23 | CCC(N)C(=O)O (stereo not drawn) [α-AMINO-n-BUTYRIC ACID] | 35 | −.19 | 7.58 | K Factor [1]: 1
24 | CC(C)[C@H](N)C(=O)O [VALINE] | 40 | −18 | 8.12 | K Factor [1]: 2

Row | Molecule | G Factor (G14) [1] | X Factor [1] | pH (H20) [2] | other results
25 | CN(CC(=O)O)C(=N)N [CREATINE] | 28 | 0.34 | 7.54 | –
26 | O=C(O)CNC(=O)c1ccccc1 [HIPPURIC ACID] | 33 | 2 | 6.46 | K Factor [1]: 1
27 | dermatan sulfate | – | – | – | effect on transient expression when present before or during the transfection step [1]: blocking effect
28 | CC[C@H](C)[C@H](N)C(=O)O [ISOLEUCINE] | 30 | −119 | 6.99 | –
29 | gentamicin [reference compound] | – | – | – | effect on protein production ([1]; control plates 1A (with gentamicin) vs 1B (no gentamicin)): somewhat suppressed protein production
30 | CSCC[C@H](NC=O)C(=O)O [N-FORMYL-L-METHIONINE] | 63 | 26 | 4.34 | –
31 | NCCC[C@H](N)C(=O)O [ORNITHINE] | 28 | 16 | – | –
32 | N[C@@H](Cc1c[nH]c2ccccc12)C(=O)O [TRYPTOPHAN] | 67 | 55 | 6.25 | K Factor [1]: 2
33 | O=C([O-])c1ccccc1.[Na+] [SODIUM BENZOATE] | −6 | −15 | 8.14 | K Factor [1]: 1
34 | NCCS(=O)(=O)O [TAURINE] | 34 | −20 | 7.88 | K Factor [1]: 2
35 | hydroxypropyl guaran | – | – | – | effect on transient expression [1]: capable of prolonging transient expression; effect on transient expression ([1]; listed as Hydroxypropyl guarans): enhance transient expression to some degree
36 | CCCCCc1ccc(C(=O)O)cc1 [4-PENTYLBENZOIC ACID] | −88 | −96 | – | –
37 | NCCCC[C@H](N)C(=O)O [L-LYSINE] | −10 | – | 8.34 | G Factor (G7) [1, 3]: 9
38 | MELANIN | – | – | 3.45 | effect on transient expression [1]: significantly suppress transient expression
39 | C[C@@H](O)[C@H](N)C(=O)O [L-THREONINE] | 40 | 28 | 8.14 | K Factor [1]: 1
40 | iso-propyl benzoic acid | – | – | – | effect on transient expression [1]: capable of prolonging transient expression
41 | N[C@@H](CCC(=O)N[C@@H](CS)C(=O)NCC(=O)O)C(=O)O [GLUTATHIONE] | 34 | 2 | 3.58 | K Factor [1]: 1; pH (H20) ([2]; listed as glutathione): ~3
42 | N-carboxymethylchitosan N,S-sulfate | – | – | – | effect on transient expression when present before or during the transfection step [1]: blocking effect
43 | heparin [reference compound] | – | – | – | effect on transient expression when added after the transfection step [1]: effective in enhancing transient expression; also recorded: enhance transient expression; effect on transient expression when present before or during the transfection step [1]: blocking effect; also recorded: blocked transient expression
44 | CCCCCCc1ccc(C(=O)O)cc1 [4-HEXYLBENZOIC ACID] | – | – | 6.13 | –
45 | O=C(O)CCCCC1CCSS1 (stereo not drawn) [α-lipoic acid, lipoic acid] | – | – | – | results when substituted for benzoate buffer ([1]; used in conjunction with chondroitin sulfate as in plates 6 or 13 of Table 9): comparable results
46 | CCCCc1ccc(C(=O)O)cc1 [4-BUTYLBENZOIC ACID] | – | – | 5.94 | –
47 | methoxy benzoic acid | – | – | – | effect on transient expression [1]: capable of prolonging transient expression
